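Briefly, cells in 96-well plates were exposed to five compound concentrations for 48 h, and endpoints were estimated by linear interpolation. At the GI50, growth is halved. TGI denotes the concentration required for complete inhibition of growth.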
Legend:
Assay in all cases: DTP human tumour cell line panel, 48 h
RXF 393 renal = system: RXF 393 renal
SNB-19 CNS = system: SNB-19 CNS
SK-MEL-2 melanoma = system: SK-MEL-2 melanoma
COLO 205 colon = system: COLO 205 colon
SF-539 CNS = system: SF-539 CNS
OVCAR-3 ovarian = system: OVCAR-3 ovarian
HOP-62 NSCLC = system: HOP-62 NSCLC
UO-31 renal = system: UO-31 renal
K-562 leukemia = system: K-562 leukemia
MCF7 breast = system: MCF7 breast
BT-549 breast = system: BT-549 breast
NCI-H460 lung = system: NCI-H460 lung
786-0 renal = system: 786-0 renal
MALME-3M melanoma = system: MALME-3M melanoma
LOX IMVI melanoma = system: LOX IMVI melanoma
OVCAR-4 ovarian = system: OVCAR-4 ovarian
CAKI-1 renal = system: CAKI-1 renal
UACC-257 melanoma = system: UACC-257 melanoma
M14 melanoma = system: M14 melanoma
T-47D breast = system: T-47D breast
HCC-2998 colon = system: HCC-2998 colon
SN12C renal = system: SN12C renal
DU-145 prostate = system: DU-145 prostate
HCT-15 colon = system: HCT-15 colon
OVCAR-8 ovarian = system: OVCAR-8 ovarian
SW-620 colon = system: SW-620 colon
HT29 colon = system: HT29 colon
HL-60(TB) leukemia = system: HL-60(TB) leukemia
TK-10 renal = system: TK-10 renal
NCI/ADR-RES ovarian = system: NCI/ADR-RES ovarian
A549 NSCLC = system: A549 NSCLC
SF-268 CNS = system: SF-268 CNS
HCT-116 colon = system: HCT-116 colon
NCI-H226 lung = system: NCI-H226 lung
UACC-62 melanoma = system: UACC-62 melanoma
MDA-MB-231 breast = system: MDA-MB-231 breast
IGROV1 ovarian = system: IGROV1 ovarian
HOP-92 NSCLC = system: HOP-92 NSCLC
PC-3 prostate = system: PC-3 prostate
A498 renal = system: A498 renal
SK-OV-3 ovarian = system: SK-OV-3 ovarian
ACHN renal = system: ACHN renal
OVCAR-5 ovarian = system: OVCAR-5 ovarian
MOLT-4 leukemia = system: MOLT-4 leukemia
SK-MEL-28 melanoma = system: SK-MEL-28 melanoma
NCI-H23 lung = system: NCI-H23 lung
SNB-75 CNS = system: SNB-75 CNS
SK-MEL-5 melanoma = system: SK-MEL-5 melanoma
SF-295 CNS = system: SF-295 CNS
CCRF-CEM leukemia = system: CCRF-CEM leukemia
MDA-MB-435 = system: MDA-MB-435
NCI-H522 lung = system: NCI-H522 lung
U251 CNS = system: U251 CNS
KM12 colon = system: KM12 colon
RPMI-8226 leukemia = system: RPMI-8226 leukemia
HS 578T breast = system: HS 578T breast

Compound `CCS(=O)(=O)Nc1cccc(Nc2c3cccc(C)c3nc3c(C)cccc23)c1OC` has a GI50 (RXF 393 renal) of 1.98 µM, a TGI (RXF 393 renal) of 13.2 µM and a GI50 (SNB-19 CNS) of 0.572 µM. It also gave a TGI (SNB-19 CNS) of over 88.3 µM, a GI50 (SK-MEL-2 melanoma) of 10.5 µM and a TGI (SK-MEL-2 melanoma) of 59.8 µM. It also gave a GI50 (COLO 205 colon) of 2.56 µM, a TGI (COLO 205 colon) of over 100 µM and a GI50 (SF-539 CNS) of 0.708 µM. The TGI (SF-539 CNS) was 6.23 µM, the GI50 (OVCAR-3 ovarian) was 4.59 µM and the TGI (OVCAR-3 ovarian) was 25 µM. For the same compound, the GI50 (HOP-62 NSCLC) was 0.555 µM, the TGI (HOP-62 NSCLC) was over 29.3 µM and the GI50 (UO-31 renal) was 0.393 µM. For the same compound, the TGI (UO-31 renal) was 26 µM, the GI50 (K-562 leukemia) was 1.55 µM and the TGI (K-562 leukemia) was over 45.3 µM. It also gave a GI50 (MCF7 breast) of 0.168 µM, a TGI (MCF7 breast) of 49.5 µM and a GI50 (BT-549 breast) of 2.54 µM. The TGI (BT-549 breast) was 25.1 µM, the GI50 (NCI-H460 lung) was 0.104 µM and the TGI (NCI-H460 lung) was 4.6 µM. For the same compound, the GI50 (786-0 renal) was 0.485 µM, the TGI (786-0 renal) was 10.4 µM and the GI50 (MALME-3M melanoma) was 0.901 µM. The TGI (MALME-3M melanoma) was over 47.4 µM, the GI50 (LOX IMVI melanoma) was 0.273 µM and the TGI (LOX IMVI melanoma) was over 91.5 µM. The GI50 (OVCAR-4 ovarian) was 9.78 µM, the TGI (OVCAR-4 ovarian) was over 75.8 µM and the GI50 (CAKI-1 renal) was 0.347 µM. It also gave a TGI (CAKI-1 renal) of 15.8 µM, a GI50 (UACC-257 melanoma) of 2.46 µM and a TGI (UACC-257 melanoma) of 38.5 µM. For the same compound, the GI50 (M14 melanoma) was 0.435 µM, the TGI (M14 melanoma) was over 100 µM and the GI50 (T-47D breast) was 0.58 µM. For the same compound, the TGI (T-47D breast) was over 30.4 µM, the GI50 (HCC-2998 colon) was 2.99 µM and the TGI (HCC-2998 colon) was over 71.1 µM. The GI50 (SN12C renal) was 0.374 µM, the TGI (SN12C renal) was 9.84 µM and the GI50 (DU-145 prostate) was 0.545 µM. The TGI (DU-145 prostate) was 14.1 µM, the GI50 (HCT-15 colon) was 1.31 µM and the TGI (HCT-15 colon) was over 100 µM. For the same compound, the GI50 (OVCAR-8 ovarian) was 1.19 µM, the TGI (OVCAR-8 ovarian) was 74.5 µM and the GI50 (SW-620 colon) was 0.979 µM. It also gave a TGI (SW-620 colon) of over 100 µM, a GI50 (HT29 colon) of 1.93 µM and a TGI (HT29 colon) of 10.5 µM. The GI50 (HL-60(TB) leukemia) was 0.25 µM, the GI50 (TK-10 renal) was 2.24 µM and the TGI (TK-10 renal) was 11.5 µM. For the same compound, the GI50 (NCI/ADR-RES ovarian) was 3.23 µM, the TGI (NCI/ADR-RES ovarian) was 60.2 µM and the GI50 (A549 NSCLC) was 0.202 µM. It also gave a TGI (A549 NSCLC) of 4.02 µM, a GI50 (SF-268 CNS) of 0.98 µM and a TGI (SF-268 CNS) of over 56 µM. It also gave a GI50 (HCT-116 colon) of 0.793 µM, a TGI (HCT-116 colon) of over 51.9 µM and a GI50 (NCI-H226 lung) of 0.627 µM. For the same compound, the TGI (NCI-H226 lung) was 4.76 µM, the GI50 (UACC-62 melanoma) was 0.635 µM and the TGI (UACC-62 melanoma) was over 100 µM. For the same compound, the GI50 (MDA-MB-231 breast) was 5.2 µM, the TGI (MDA-MB-231 breast) was 41.4 µM and the GI50 (IGROV1 ovarian) was 1.8 µM. The TGI (IGROV1 ovarian) was over 70.2 µM, the GI50 (HOP-92 NSCLC) was 0.399 µM and the TGI (HOP-92 NSCLC) was 7.4 µM. The GI50 (PC-3 prostate) was 1.67 µM, the TGI (PC-3 prostate) was 19.2 µM and the GI50 (A498 renal) was 0.392 µM. The TGI (A498 renal) was 6.01 µM, the GI50 (SK-OV-3 ovarian) was 1.61 µM and the TGI (SK-OV-3 ovarian) was 29.7 µM. For the same compound, the GI50 (ACHN renal) was 0.326 µM, the TGI (ACHN renal) was 16.5 µM and the GI50 (OVCAR-5 ovarian) was 3.86 µM. For the same compound, the TGI (OVCAR-5 ovarian) was 41.5 µM, the GI50 (MOLT-4 leukemia) was 0.166 µM and the TGI (MOLT-4 leukemia) was 4.23 µM. The GI50 (SK-MEL-28 melanoma) was 4.29 µM, the TGI (SK-MEL-28 melanoma) was over 100 µM and the GI50 (NCI-H23 lung) was 0.653 µM. It also gave a TGI (NCI-H23 lung) of over 100 µM, a GI50 (SNB-75 CNS) of 1 µM and a TGI (SNB-75 CNS) of 22 µM. For the same compound, the GI50 (SK-MEL-5 melanoma) was 1.1 µM, the TGI (SK-MEL-5 melanoma) was 8.21 µM and the GI50 (SF-295 CNS) was 0.381 µM. For the same compound, the TGI (SF-295 CNS) was 22.1 µM, the GI50 (CCRF-CEM leukemia) was 0.264 µM and the TGI (CCRF-CEM leukemia) was over 100 µM. For the same compound, the GI50 (MDA-MB-435) was 4.05 µM, the TGI (MDA-MB-435) was over 86 µM and the GI50 (NCI-H522 lung) was 2.58 µM. The TGI (NCI-H522 lung) was 19.5 µM, the GI50 (U251 CNS) was 0.404 µM and the TGI (U251 CNS) was 19.8 µM. The GI50 (KM12 colon) was 2.26 µM, the TGI (KM12 colon) was over 31.2 µM and the GI50 (RPMI-8226 leukemia) was 0.573 µM. For the same compound, the TGI (RPMI-8226 leukemia) was 12.5 µM, the GI50 (HS 578T breast) was 5.69 µM and the TGI (HS 578T breast) was 44.8 µM.
